Experimental data taken from patent US20190300927A1, “METABOLIC ASSAY FOR BACTERIAL GROWTH AND GRAM TYPING” (SELUX DIAGNOSTICS, INC., priority 2018, published 2019).

How the values were obtained:
gram-positive organisms = conditions: Fung and Miller 1973; cited from earlier work
gram-negative organisms = conditions: Fung and Miller 1973; cited from earlier work
[1] = system: clinical isolates of Pseudomonas aeruginosa; experiment: Resorufin fluorescence after 4 hour incubation with P. aeruginosa clinical isolates (FIG. 3); format: cell-based; conditions: resorufin alone 100 μM, no methylene blue, Mueller-Hinton broth, Ex560/Em590
Experimental: FIG. 3 Experiment: Four clinical isolates of P aeruginosa were inoculated into MHB at a 1:200 dilution from a 0.5 McFarland standard. Resorufin was added to each well at a 100 μM final concentration. Plates were incubated shaking for 4 hours at 37° C. Fluorescence was read at Ex560/Em590. Uninoculated MIHB with resorufin was included as a negative control.

SMILES	effect of high concentrations on gram-positive organisms (gram-positive organisms)	effect of high concentrations on gram-negative organisms (gram-negative organisms)	remaining resorufin fluorescence after P. aeruginosa growth [1]
CN(C)c1ccc2nc3ccc(=[N+](C)C)cc-3sc2c1 [methylene blue, Methylene blue]	inhibitory	tolerated	
O=c1ccc2nc3ccc(O)cc3oc-2c1 [resorufin]			does not eliminate the resorufin fluorescence
